The subject of one assay is mice. The assay can be described thus: Rotarod assay, interaction with diazepam.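 Also: Success means running more than 120 min on the rod.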 Type of assay: in vivo. Conditions: Diazepam 1.5 mg/kg p.o. + Vehicle i.p.; 15 rpm. The protocol: The incidences of animals running more than […] on the rotating rod were noted, and significances were calculated by non-parametric x^2 test. 8 mice/group were used.
The rotarod apparatus is divided into five test zones, so that up to five mice may be tested at the same time. The rod has been specially machined to provide a suitable grip for the animal. The diameter of the rod is 3.5 cm. The rotation speed was 15 rpm. When the animal falls off the rotating rod, it presses a button to record automatically the time spent on the rod. On the day before the experiment the mice were trained to run on the rod rotating with 15 rpm. Diazepam was administered orally 60 min before the rotarod assay, test substances were administered intraperitoneally 15 min before testing.

A further assay concerns the target T1, MT-1 receptor (Homo sapiens, UniProt P48039).
T1 construct: expressed in transfected cells; host or cells: CHP-K1 (Chinese hamster ovary) cells (so in the source)
Kind of assay: 125I-melatonin binding in membranes of CHP-K1 cells, MT-1. Conditions: 0.05 nM 125I-melatonin; for IC50 / Ki: 25° C., 3 hours; for IC50: read-out: MT-1 receptor binding IC50; for Ki: read-out: MT-1 receptor binding KI; for inhibition at 10 µM: read-out: MT-1 receptor binding % inhibition by 10 μM. The protocol: (§1) Aliquots of suspended membranes of human recombinant CHP-K1 (Chinese hamster ovary) cells stably expressing human melatonin-1 or melatonin-2 (MT-1 or MT-2) receptors or of hamster brain (MT-3) were incubated at 25° C. with 0.05 nM ^125I-melatonin in buffer (25 mM HEPES, pH 7.4, 5 mM MgCl2, 1 mM CaCl2, 0.5% BSA) or with 0.1 nM for MT-3 alone or in the presence of 1 nM, 10 nM, 0.1 μM, 1 μM and 10 μM of test substances N-[2-(5-methoxy-indol-3-yl)-ethyl]-commenamide, N-[2-(5-methoxy-indol-3-yl)-ethyl]-comanilamide, N-[2-(5-methoxy-indol-3-yl)-ethyl]-coumalylamide, N-[2-(5-methoxy-indol-3-yl)-ethyl]-2-methoxy-commenamide, N-[2-(5-methoxy-indol-3-yl)-ethyl]-chelidonamide, O-[2-(5-methoxy-indol-3-yl)-ethyl]-comenic ester, N-[2-(5-methoxy-indol-3-yl)-ethyl]-2-Pyrone-6-carboxamide and N-[2-(2-bromo-5-methoxy-indol-3-yl)-ethyl]-coumalylamide for 3 hours for MT-1, 4 hours for MT-2 and 30 min for MT-3. The binding reaction was terminated and the membranes were washed with 4 ml of ice-cold HEPES buffer by vacuum filtration. Membranes were then collected, and the filters containing the bound ^125I-melatonin were assayed for the amount of radioactivity in a […]. Non-specific binding was evaluated using a reaction with 1 μM 6-chloromelatonin (MT-1 and MT-2) or 30 μM melatonin (MT-3).

For a further assay, the target named is T2, MT-2 receptor (Homo sapiens, UniProt P49286).
T2 construct: expressed in transfected cells; host or cells: CHP-K1 (Chinese hamster ovary) cells (so in the source)
T2 sequence (P49286 1-362): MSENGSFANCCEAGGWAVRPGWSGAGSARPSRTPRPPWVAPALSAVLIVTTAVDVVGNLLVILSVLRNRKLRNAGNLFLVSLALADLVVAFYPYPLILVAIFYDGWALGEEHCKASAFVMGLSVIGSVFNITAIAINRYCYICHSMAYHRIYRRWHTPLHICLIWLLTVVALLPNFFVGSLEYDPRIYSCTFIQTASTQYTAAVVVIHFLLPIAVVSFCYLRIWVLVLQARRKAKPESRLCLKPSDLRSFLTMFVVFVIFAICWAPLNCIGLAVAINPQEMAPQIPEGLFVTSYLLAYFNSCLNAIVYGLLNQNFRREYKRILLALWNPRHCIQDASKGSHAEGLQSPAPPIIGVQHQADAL
Kind of assay: 125I-melatonin binding in membranes of CHP-K1 cells, MT-2. The following applies: 0.05 nM 125I-melatonin; for IC50 / Ki: 25° C., 4 hours; for IC50: read-out: MT-2 receptor binding IC50; for Ki: read-out: MT-2 receptor binding KI; for inhibition at 10 µM: read-out: MT-2 receptor binding % inhibition by 10 μM. How it is done: as §1

The subject of another assay is CD1 mice. The assay can be described thus: Potentiation of hexobarbital-Na sleep time in mice. The assay is classed as in vivo. How it is done:
CD1 mice were divided randomly into groups of seven mice each. The mice in each group were administered intraperitoneally a dose of one of the following: 100 mg/kg of one of test substances O-[2-(5-methoxy-indol-3-yl)-ethyl]-comenic ester, N-[2-(5-methoxyindol-3-yl)-ethyl]-commenamide, N-[2-(5-methoxy-indol-3-yl)-ethyl]-coumalylamide, N-[2-(5-methoxy-indol-3-yl)-ethyl]-chelidonamide, N-[2-(5-methoxy-indol-3-yl)-ethyl]-comanilamide or N-[2-(5-methoxy-indol-3-yl)-ethyl]-2-methoxy-commenamide in saline (0.1 ml/10 g body weight), or saline alone. Fifteen minutes later the mice received a dose of 50 mg/kg of hexobarbital-Na intravenously. Sleep time was measured in each animal as the time from loss to recovery of the righting reflex.

A further assay relates to 3T3-L1 adipocytes. The assay can be described thus: 2-[3H]-deoxy-d-glucose uptake in FFA-treated 3T3-L1 adipocyte model. Type of assay: cell-based. The protocol: Adipocytes were glucose-starved for 1 h in Hepes-salt buffer containing 2% FFA-free BSA. FFA (free fatty acids) were then added to the cells at the indicated concentrations (300 μM) for the indicated times (3 h). 10 min before the end of the FFA treatment, the cells were stimulated with insulin (20 nM)/melatonin (10 nM)/test compounds (10 nM) at 37° C. 2-[^3H]-deoxy-d-glucose at 1 μCi/mL and 0.1 mM unlabeled 2-deoxyglucose in KRP-HEPES buffer was added and cells were incubated for 10 min at room temperature. Non-specific glucose uptake was measured by parallel incubations in the presence of 10 μM cytochalasin B, which blocks transporter-mediated glucose uptake, and was subtracted from total uptake in each assay. Cells were then washed three times with ice-cold phosphate buffered saline (PBS) and solubilized in 1M NaOH for 20 minutes. The sample was then counted using a scintillation counter. 2-[^3H]-deoxy-d-glucose uptake was assayed in triplicates for each condition in at least 3 independent experiments. 2-[^3H]-deoxy-d-glucose uptake (counts per minute-cpm) are presented as mean+SE of triplicates in a representative experiment or results of three independent experiments. ANOVA test was used with significance of P<0.05 (Table 7).

Assay [1] deals with rat primary cortical neurons. The assay can be described thus: Neurite outgrowth in rat primary cortical neurons. Type of assay: cell-based. The following applies: 5 days of culture. The protocol: The aim of this study was to assess the potential effect of N-[2-(5-methoxy-indol-3-yl)-ethyl]-comanilamide (100 nM) after 5 days of culture on neurite outgrowth in rat primary cortical neurons. The study used three separate cultures (n=6 wells per condition); the mean value of the 3 cultures (+/−sem) was calculated.
Rat cortical neurons were cultured as described by Singer et al., 1999. Briefly pregnant female rats of 15 days gestation are killed by cervical dislocation (Rats Wistar; Janvier) and the fetuses removed from the uterus. The cortex are removed and placed in ice-cold medium of Leibovitz (L15; Invitrogen) containing 1% of Penicillin-Streptomycin (PS; Invitrogen) and 1% of bovine serum albumin (BSA; Sigma). Cortex are dissociated by trypsinisation for 20 min at 37° C. (Trypsin EDTA 1×; Invitrogen) diluted in PBS without calcium and magnesium. The reaction is stopped by the addition of Dulbecco's modified Eagle's medium (DMEM; Invitrogen) containing DNAase I grade II (0.1 mg/ml; Roche Diagnostic) and 10% of fetal calf serum (FCS; Invitrogen). Cells are then mechanically dissociated by 3 passages through a 10 ml pipette. Cells are then centrifuged at 180×g for 10 min at 10° C. The supernatant is discarded and the cells of pellet are re-suspended in a defined culture medium consisting of Neurobasal (Invitrogen) supplemented with B27 (2%; Invitrogen), L-glutamine (0.2 mM; Invitrogen) and 1% of PS solution with 10 ng/ml of Brain-derived neurotrophic factor (BDNF).
For the neurite outgrowth assay, the cells are seed with test compound A (at 100 nM) and reference compound (BDNF at 10 ng/ml used as reference control) on defined medium (Neurobasal supplemented with 2% of B27, 0.2 mM of L-glutamine and 1% of PS).
The cultures were done (a) without BDNF in order to analyse the neurotrophic effect of compounds alone and (b) with low BDNF concentration (0.5 ng/ml) in order to analyse the synergic neurotrophic effect of N-[2-(5-methoxy-indol-3-yl)-ethyl]-comanilamide with the growth factor.
After 5 days of culture in presence of N-[2-(5-methoxy-indol-3-yl)-ethyl]-comanilamide and reference, cells were fixed by a cool solution of ethanol (95%) and acetic acid (5%) for 10 min. After permeabilization with 0.1% of saponin, cells were incubated with monoclonal antibody anti microtubule associated protein 2 (MAP-2; Sigma). This antibody stains specifically cell bodies and neurite of neurons. […] Nuclei of neurons were labeled by a fluorescent marker (Hoechst solution, SIGMA). Per well, 20 pictures were taken using InCell Analyzer™ 1000 (GE Healthcare) with 20× magnification. All images were done in the same conditions. Analysis of the neuritis networks and neuron were assessed using Developer software (GE Healthcare). […]

T1 sequence (P48039 whole entry): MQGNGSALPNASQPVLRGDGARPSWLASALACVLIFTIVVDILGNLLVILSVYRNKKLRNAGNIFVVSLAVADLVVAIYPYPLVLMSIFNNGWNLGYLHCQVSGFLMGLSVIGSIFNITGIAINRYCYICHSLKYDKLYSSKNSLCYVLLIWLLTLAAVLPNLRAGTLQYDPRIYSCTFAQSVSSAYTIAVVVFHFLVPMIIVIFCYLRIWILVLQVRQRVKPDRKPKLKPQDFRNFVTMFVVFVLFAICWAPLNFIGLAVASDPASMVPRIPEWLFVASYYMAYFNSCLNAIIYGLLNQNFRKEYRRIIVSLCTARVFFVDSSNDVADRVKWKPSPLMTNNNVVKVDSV

As for `CN1C(=O)CN=C(c2ccccc2)c2cc(Cl)ccc21` [Diazepam, reference compound], the “Incidence of performance (rotarod)” value in the assay with mice is recorded as 6/8.

In the case of `COc1ccc2[nH]c(Br)c(CCNC(=O)c3ccc(=O)oc3)c2c1` [N-[2-(2-bromo-5-methoxy-indol-3-yl)-ethyl]-coumalylamide], on MT-1 receptor, the IC50 worked out at 2400 nM, the Ki was 1250 nM and the inhibition at 10 µM was determined as 76%. Moreover, on MT-2 receptor, the IC50 worked out at 850 nM, the Ki was 441 nM and the inhibition at 10 µM came out at 89%.

Turning to `COc1ccc2[nH]cc(CCNC(=O)c3cccc(=O)o3)c2c1` [N-[2-(5-methoxy-indol-3-yl)-ethyl]-2-Pyrone-6-carboxamide], on MT-1 receptor, the IC50 stood at 10100 nM, the Ki amounted to 5240 nM and the inhibition at 10 µM was 50%. In addition, on MT-2 receptor, the IC50 amounted to 5060 nM, the Ki worked out at 2630 nM and the inhibition at 10 µM was found to be 65%.

Turning to `COc1ccc2[nH]cc(CCOC(=O)c3cc(=O)c(O)co3)c2c1` [O-[2-(5-methoxy-indole-3-yl)-ethyl]-comenic ester], the “effect on hexobarbital-Na narcosis time” value in the assay with CD1 mice (100 mg/kg i.p.) is on record as “significantly increased the hexobarbital-Na narcosis time”. Also, the “Changes (%) vs. Vehicle (sleep time)” value with CD1 mice (100 mg/kg i.p. 15 min before 50 mg/kg hexobarbital-Na i.v.) is on record as “+108%”. The “Mean Sleep Time-Treatment (min) ± SE” value in the assay with CD1 mice (100 mg/kg i.p. 15 min before 50 mg/kg hexobarbital-Na i.v., loss to recovery of righting reflex) was found to be 15.15 ± 6.02 min. The inhibition at 10 µM on MT-1 receptor came to 47%. Moreover, on MT-2 receptor, the IC50 is 1640 nM, the Ki is 850 nM and the inhibition at 10 µM amounted to 78%. In the assay with 3T3-L1 adipocytes (Insulin 20 nM + FFA 300 μM (3 h) + substance 10 nM), the “2-[3H]-deoxy-d-glucose uptake (cpm)” value was 1787 cpm.

In the case of Insulin, the “2-[3H]-deoxy-d-glucose uptake (cpm)” value in the assay on 3T3-L1 adipocytes (Insulin (20 nM) alone, no FFA) worked out at 1839 cpm.

B1: BDNF: Brain-derived neurotrophic factor, growth factor used as reference compound (protein, UniProt P23560 19-247, looked up)
Neurotrophic factor BDNF …: APMKEANIRGQGGLAYPGVRTHGTLESVNGPKAGSRGLTSLADTFEHVIEELLDEDQKVRPNEENNKDADLYTSRVMLSSQVPLEPPLLFLLEEYKNYLDAANMSMRVRRHSDPARRGELSVCDSISEWVTAADKKTAVDMSGGTVTVLEKVPVSKGQLKQYFYETKCNPMGYTKEGCRGIDKRHWNSQCRTTQSYVRALTMDSKKRIGWRFIRIDTSCVCTLTIKRGR
Regarding B1, the “neurite length, % of control” value in assay [1] (BDNF 0.5 ng/ml alone) was ~125 % of control; in assay [1] (BDNF 10 ng/ml reference) it was ~153 % of control.

(Values after patent US9101613B2, “Methods for treating neurological disease” (Neurim Pharmaceuticals (1991) Ltd., priority 2006, dated 2015).)
